# Results from patent US20040091477A1, “Immunosuppresive compositions” (priority 2003, published 2004).
# Marks after values point to notes of the source that are not given here.
# How the values were obtained:
# [1] = molecular target: platelet activating factor receptor (PAFR) (Homo sapiens, UniProt P25105); settings: cited from earlier work
# isolated rat hearts [2] = assay: Cardiac function of isolated working hearts of orally treated rats, 30 min global ischemia followed by reperfusion; assay type: ex vivo
# Experimental: (§1) Male Sprague-Dawley rats were used for all studies. Rats were anesthetized with intraperitoneal pentobarbital sodium (60 mg/kg body weight) and then given intravenous heparin (500 IU/kg). After thoracotomy, the heart was excised and placed in ice cold perfusion buffer. Immediately after preparation, the aorta was cannulated, and the heart was perfused according to Langendorf method for a 5-min washout period at a constant perfusion pressure equivalent to 100 cm of water (10 kPa). The perfusion medium consisted of a modified Krebs-Henseleit bicarbonate buffer: 118 mM NaCl, 4.7 mM KCl, 1.7 mM CaCl2, 25 mM NaHCO3, 0.36 mM KH2PO4, 1.2 mM MgSO4, and 10 mM glucose. The left atrium was cannulated and the Langendorff system was switched to the working mode with a left atrial filling pressure of 17 cm of buffer (1.7 kPa) and aortic afterload pressure of 100 cm (10 kPa) of buffer. Aortic flow was measured by a calibrated rotameter, and coronary flow rate was measured by a timed collection of the coronary perfusate that dripped from the heart. After 10 min aerobic perfusion of the heart, the atrial inflow and aortic outflow lines were clamped at a point close to the origin of the aortic cannula. Reperfusion was initiated by unclamping the atrial inflow and aortic outflow lines. […] An epicardial ECG was recorded by a polygraph throughout the experimental period by two silver electrodes attached directly to the heart. ECGs were analyzed to determine the incidence of ventricular fibrillation (VF) and ventricular tachycardia (VT) and whether VF was non-sustained (spontaneously reverting to regular rhythm) or sustained (persisting through the first 3 min of reperfusion). After 3 min of ventricular fibrillation (sustained VF) hearts were defibrillated and myocardial function was recorded. The heart was considered to be in VF if an irregular undulating baseline was apparent on the ECG. […] In each instance, VT spontaneously switched to sinus rhythm or VF, therefore VT was considered non-sustained. The heart was considered to be in sinus rhythm if normal sinus complexes occurring in a regular rhythm were apparent on the ECG. Before ischemia and during reperfusion, heart rate (HR), coronary flow (CF) and aortic flow (AF) rates were registered. Left ventricular developed pressure (LVDP) which was defined as the difference between left ventricular systolic and end-diastolic pressure, and the first derivative of LVDP (+LVdp/dtmax) were also recorded (Experimetria, UK) by the insertion of a catheter into the left ventricle via the left atrium and mitral valve. […] Cardiac function data (HR, CF, AF, LVDP, and LVdp/dtmax), were expressed as the mean±SEM. One-way analysis of variance was first carried out, to test for any differences between the mean values of all groups. If differences were established, the values of the control, drug-free group were compared with those of the drug treated groups by a two-tailed t-test with the Bonferroni correction (Wallenstein et al., 1980, Circ. Res. 47:1-9). An analogue procedure was followed for distribution of discrete variables such as the incidence of VF and VT. An overall chi-square test for a 2×n table was constructed followed by a sequence of 2×2 chi-square tests to compare individual groups. A change of p<0.05 was considered significant.
# [3] = cited from earlier work
# isolated rat hearts [4] = assay: Reperfusion-induced arrhythmias (VF, VT) in isolated hearts of orally treated rats, 30 min global ischemia and 2 hours reperfusion; assay type: in vivo; settings: control 92%
# Experimental: as §1
# [5] = tested on: cAMP-specific phosphodiesterase; settings: cited from earlier work
# [6] = Schussler et al. 1995; cited from earlier work
# [7] = FK506 1 mg/kg/day oral 10 days, after 30-min reperfusion
# [8] = FK506 1 mg/kg/day oral 10 days, after 60-min reperfusion
# [9] = FK506 1 mg/kg/day oral 10 days, after 120-min reperfusion
# [10] = FK506 5 mg/kg/day oral 10 days, after 30-min reperfusion
# [11] = FK506 5 mg/kg/day oral 10 days, after 60-min reperfusion
# [12] = FK506 5 mg/kg/day oral 10 days, after 120-min reperfusion
# [13] = FK506 10 mg/kg/day oral 10 days, after 30-min reperfusion
# [14] = FK506 10 mg/kg/day oral 10 days, after 60-min reperfusion
# [15] = FK506 10 mg/kg/day oral 10 days, after 120-min reperfusion
# [16] = FK506 20 mg/kg/day oral 10 days, after 30-min reperfusion
# [17] = FK506 20 mg/kg/day oral 10 days, after 60-min reperfusion
# [18] = FK506 20 mg/kg/day oral 10 days, after 120-min reperfusion
# [19] = FK506 40 mg/kg/day oral 10 days, after 30-min reperfusion
# [20] = FK506 40 mg/kg/day oral 10 days, after 60-min reperfusion
# [21] = FK506 40 mg/kg/day oral 10 days, after 120-min reperfusion
# platelet activating factor receptor (PAFR), sequence (P25105 whole entry, species assumed, the tested form may be a part): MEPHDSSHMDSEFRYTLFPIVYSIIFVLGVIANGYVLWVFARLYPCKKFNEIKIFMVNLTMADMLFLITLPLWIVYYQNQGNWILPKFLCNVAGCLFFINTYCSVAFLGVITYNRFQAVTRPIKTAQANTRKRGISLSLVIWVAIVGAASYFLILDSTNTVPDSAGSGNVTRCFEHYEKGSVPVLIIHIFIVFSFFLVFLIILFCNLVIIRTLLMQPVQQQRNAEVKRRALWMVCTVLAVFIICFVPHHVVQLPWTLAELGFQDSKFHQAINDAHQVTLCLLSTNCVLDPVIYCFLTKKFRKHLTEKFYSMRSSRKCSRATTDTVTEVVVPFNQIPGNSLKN
compound,measurement,setting,value
COc1ccc(NC(=S)N2CCc3c(sc4c3C(c3ccccc3Cl)=NCc3nnc(C)n3-4)C2)cc1 [BN 50730],PAFR antagonistic activity compared to BN52021,[1]; more potent than BN52021,up to several 10-fold
"C=CC[C@@H]1/C=C(\C)C[C@H](C)C[C@H](OC)[C@H]2O[C@@](O)(C(=O)C(=O)N3CCCC[C@H]3C(=O)O[C@H](/C(C)=C/[C@@H]3CC[C@@H](O)[C@H](OC)C3)[C@H](C)[C@@H](O)CC1=O)[C@H](C)C[C@@H]2OC [FK506, tacrolimus]",+dP/dtmax,isolated rat hearts [2]; [7],422 ± 28 kPa/s
same,AF (aortic flow),isolated rat hearts [2]; [7],10.6 ± 0.4 mL/min
same,CF (coronary flow),isolated rat hearts [2]; [7],18.2 ± 1.0 mL/min
same,HR (heart rate),isolated rat hearts [2]; [7],315 ± 9 beats/min
same,LVDP (left ventricular developed pressure),isolated rat hearts [2]; [7],10.7 ± 0.6 kPa
same,+dP/dtmax,isolated rat hearts [2]; [8],447 ± 26 kPa/s
same,CF (coronary flow),isolated rat hearts [2]; [8],16.9 ± 0.9 mL/min
same,HR (heart rate),isolated rat hearts [2]; [8],306 ± 8 beats/min
same,LVDP (left ventricular developed pressure),isolated rat hearts [2]; [8],11.9 ± 0.5 kPa
same,AF (aortic flow),"isolated rat hearts [2]; FK506 1 mg/kg/day oral 10 days, after 60-min reperfusion, 1 mg/kg/day",10.9 ± 1.8 mL/min
same,AF (aortic flow),"isolated rat hearts [2]; FK506 1 mg/kg/day oral 10 days, after 60-min reperfusion, listed as FK 506, 1 mg/kg/day",10.9 ± 0.6 mL/min
same,+dP/dtmax,isolated rat hearts [2]; [9],432 ± 17 kPa/s
same,AF (aortic flow),isolated rat hearts [2]; [9],10.1 ± 0.6 mL/min
same,CF (coronary flow),isolated rat hearts [2]; [9],17.5 ± 0.7 mL/min
same,HR (heart rate),isolated rat hearts [2]; [9],302 ± 9 beats/min
same,LVDP (left ventricular developed pressure),isolated rat hearts [2]; [9],11.2 ± 0.3 kPa
same,+dP/dtmax,isolated rat hearts [2]; [10],430 ± 34 kPa/s
same,AF (aortic flow),isolated rat hearts [2]; [10],12.0 ± 0.9 mL/min
same,CF (coronary flow),isolated rat hearts [2]; [10],18.0 ± 1.1 mL/min
same,HR (heart rate),isolated rat hearts [2]; [10],298 ± 7 beats/min
same,LVDP (left ventricular developed pressure),isolated rat hearts [2]; [10],11.0 ± 0.4 kPa
same,+dP/dtmax,isolated rat hearts [2]; [11],463 ± 23 kPa/s
same,AF (aortic flow),isolated rat hearts [2]; [11],13.3 ± 1.0 mL/min
same,CF (coronary flow),isolated rat hearts [2]; [11],18.4 ± 0.7 mL/min
same,HR (heart rate),isolated rat hearts [2]; [11],282 ± 7 beats/min
same,LVDP (left ventricular developed pressure),isolated rat hearts [2]; [11],12.0 ± 0.7 kPa
same,+dP/dtmax,isolated rat hearts [2]; [12],451 ± 32 kPa/s
same,AF (aortic flow),isolated rat hearts [2]; [12],11.2 ± 0.8 mL/min
same,CF (coronary flow),isolated rat hearts [2]; [12],18.1 ± 0.8 mL/min
same,HR (heart rate),isolated rat hearts [2]; [12],279 ± 8 beats/min
same,LVDP (left ventricular developed pressure),isolated rat hearts [2]; [12],11.5 ± 0.4 kPa
same,+dP/dtmax,isolated rat hearts [2]; [13],478 ± 44^a kPa/s
same,AF (aortic flow),isolated rat hearts [2]; [13],12.0 ± 1.2 mL/min
same,CF (coronary flow),isolated rat hearts [2]; [13],20.0 ± 1.4 mL/min
same,HR (heart rate),isolated rat hearts [2]; [13],308 ± 8 beats/min
same,LVDP (left ventricular developed pressure),isolated rat hearts [2]; [13],11.5 ± 0.5 kPa
same,+dP/dtmax,isolated rat hearts [2]; [14],472 ± 32 kPa/s
same,AF (aortic flow),isolated rat hearts [2]; [14],13.3 ± 1.2 mL/min
same,CF (coronary flow),isolated rat hearts [2]; [14],19.6 ± 1.2 mL/min
same,HR (heart rate),isolated rat hearts [2]; [14],310 ± 9 beats/min
same,LVDP (left ventricular developed pressure),isolated rat hearts [2]; [14],12.3 ± 0.7 kPa
same,+dP/dtmax,isolated rat hearts [2]; [15],463 ± 29 kPa/s
same,AF (aortic flow),isolated rat hearts [2]; [15],11.4 ± 0.7 mL/min
same,CF (coronary flow),isolated rat hearts [2]; [15],18.8 ± 0.7 mL/min
same,HR (heart rate),isolated rat hearts [2]; [15],307 ± 7 beats/min
same,LVDP (left ventricular developed pressure),isolated rat hearts [2]; [15],11.7 ± 0.6 kPa
same,+dP/dtmax,isolated rat hearts [2]; [16],536 ± 28^a kPa/s
same,AF (aortic flow),isolated rat hearts [2]; [16],17.4 ± 0.8^a ml/min
same,CF (coronary flow),isolated rat hearts [2]; [16],23.1 ± 1.1^a ml/min
same,HR (heart rate),isolated rat hearts [2]; [16],298 ± 9 beats/min
same,LVDP (left ventricular developed pressure),isolated rat hearts [2]; [16],13.5 ± 0.6^a kPa
same,+dP/dtmax,isolated rat hearts [2]; [17],544 ± 31^a kPa/s
same,AF (aortic flow),isolated rat hearts [2]; [17],19.8 ± 1.5^a ml/min
same,CF (coronary flow),isolated rat hearts [2]; [17],22.0 ± 1.1^a ml/min
same,HR (heart rate),isolated rat hearts [2]; [17],297 ± 8 beats/min
same,LVDP (left ventricular developed pressure),isolated rat hearts [2]; [17],14.1 ± 0.6^a kPa
same,+dP/dtmax,isolated rat hearts [2]; [18],519 ± 26^a kPa/s
same,AF (aortic flow),isolated rat hearts [2]; [18],17.3 ± 1.1^a ml/min
same,CF (coronary flow),isolated rat hearts [2]; [18],21.2 ± 1.1^a ml/min
same,HR (heart rate),isolated rat hearts [2]; [18],295 ± 6 beats/min
same,LVDP (left ventricular developed pressure),isolated rat hearts [2]; [18],13.2 ± 0.5^a kPa
same,+dP/dtmax,isolated rat hearts [2]; [19],557 ± 31^a kPa/s
same,AF (aortic flow),isolated rat hearts [2]; [19],20.6 ± 1.3^a ml/min
same,CF (coronary flow),isolated rat hearts [2]; [19],24.7 ± 1.5^a ml/min
same,HR (heart rate),isolated rat hearts [2]; [19],291 ± 7 beats/min
same,LVDP (left ventricular developed pressure),isolated rat hearts [2]; [19],14.1 ± 0.6^a kPa
same,+dP/dtmax,isolated rat hearts [2]; [20],594 ± 26^a kPa/s
same,AF (aortic flow),isolated rat hearts [2]; [20],22.9 ± 2.1^a ml/min
same,CF (coronary flow),isolated rat hearts [2]; [20],23.5 ± 0.8^a ml/min
same,HR (heart rate),isolated rat hearts [2]; [20],286 ± 9 beats/min
same,LVDP (left ventricular developed pressure),isolated rat hearts [2]; [20],15.3 ± 0.6^a kPa
same,+dP/dtmax,isolated rat hearts [2]; [21],568 ± 33^a kPa/s
same,AF (aortic flow),isolated rat hearts [2]; [21],20.0 ± 1.8^a ml/min
same,CF (coronary flow),isolated rat hearts [2]; [21],22.8 ± 1.8^a ml/min
same,HR (heart rate),isolated rat hearts [2]; [21],289 ± 8 beats/min
same,LVDP (left ventricular developed pressure),isolated rat hearts [2]; [21],14.6 ± 0.6^a kPa
same,"change of preischemic HR, CF, AF, LVDP and +LVdP/dtmax (in words)","isolated rat hearts [2]; FK506 treatment, before ischemia, versus drug-free group",No significant changes
same,plasma concentrations,"[3]; continuous intravenous infusion, severe acute GVHD",25 to 35 ng/mL
same,blood levels,[3]; low doses (0.1 mg/kg or less),~10 ng/mL
same,fraction of treated patients with greater than 1 year graft survival,[3]; low doses (0.1 mg/kg or less),> 70%
same,incidence of reperfusion-induced total (irreversible plus reversible) VF,isolated rat hearts [4]; FK506 1 mg/kg/day oral 10 days,92%
same,incidence of reperfusion-induced total (irreversible plus reversible) VF,isolated rat hearts [4]; FK506 5 mg/kg/day oral 10 days,83%
same,incidence of reperfusion-induced total (irreversible plus reversible) VF,isolated rat hearts [4]; FK506 10 mg/kg/day oral 10 days,67%
same,incidence of reperfusion-induced total (irreversible plus reversible) VF,isolated rat hearts [4]; FK506 20 mg/kg/day oral 10 days,33%
same,incidence of reperfusion-induced total (irreversible plus reversible) VF,isolated rat hearts [4]; FK506 40 mg/kg/day oral 10 days,25%
C[C@@H]1C(=O)O[C@H]2C[C@@]34[C@H]5C[C@@H](C(C)(C)C)[C@]36[C@@H](OC(=O)[C@@H]6O)O[C@@]4(C(=O)O5)[C@]21O [Ginkgolide A],PAFR antagonist activity (in words),[1],PAFR antagonist
C[C@@H]1C(=O)O[C@@H]2[C@H]1[C@@]13OC4OC(=O)[C@H](O)C45[C@H](C(C)(C)C)[C@@H](O)C(OC1=O)[C@]53[C@H]2O (some centres unmarked) [Ginkgolide M],PAFR antagonist activity (in words),[1],PAFR antagonist activity
COc1ccc(-c2cc(=O)c3c(O)cc(O)c(-c4cc(-c5cc(=O)c6c(O)cc(OC)cc6o5)ccc4OC)c3o2)cc1 [Sciadopitysin],cAMP phosphodiesterase inhibitory activity (in words),[5],almost inactive
O=c1cc(-c2ccc(O)c(O)c2)oc2cc(O[C@@H]3O[C@H](CO)[C@@H](O)[C@H](O)[C@H]3O)cc(O)c12 [luteolin-7-glucoside],cardioprotective effects,[6],186%
Ginkgolide J,PAFR antagonist activity (in words),[1],PAFR antagonist activity
ginkgolide C,PAFR antagonist activity (in words),[1],PAFR antagonist
